Our source for the inhibition, Inhibition and Activity values is ChEMBL document CHEMBL2073776, “Interaction of structurally diverse pesticides with the human MDR1 gene product P-glycoprotein” (Toxicol Appl Pharmacol, 1996).

Usually inhibition stands for the share of the control response that was lost under treatment. A lower inhibition goes with a weak effect.

Each structure is given as a SMILES string.

Holding throughout (type): functional, cell-based
For data set [1], the target named is T1, MDR1 (ABCB1, ATP-dependent translocase) (Homo sapiens, UniProt P08183). The data set is described as follows: TP_TRANSPORTER: inhibition of Doxorubicin efflux (Doxorubicin: 50 uM, Heptachlor: 250 uM) in MDR1-expressing B16/F10 cells. As to conditions: mouse, probe Doxorubicin.
T1 sequence (P08183 whole entry): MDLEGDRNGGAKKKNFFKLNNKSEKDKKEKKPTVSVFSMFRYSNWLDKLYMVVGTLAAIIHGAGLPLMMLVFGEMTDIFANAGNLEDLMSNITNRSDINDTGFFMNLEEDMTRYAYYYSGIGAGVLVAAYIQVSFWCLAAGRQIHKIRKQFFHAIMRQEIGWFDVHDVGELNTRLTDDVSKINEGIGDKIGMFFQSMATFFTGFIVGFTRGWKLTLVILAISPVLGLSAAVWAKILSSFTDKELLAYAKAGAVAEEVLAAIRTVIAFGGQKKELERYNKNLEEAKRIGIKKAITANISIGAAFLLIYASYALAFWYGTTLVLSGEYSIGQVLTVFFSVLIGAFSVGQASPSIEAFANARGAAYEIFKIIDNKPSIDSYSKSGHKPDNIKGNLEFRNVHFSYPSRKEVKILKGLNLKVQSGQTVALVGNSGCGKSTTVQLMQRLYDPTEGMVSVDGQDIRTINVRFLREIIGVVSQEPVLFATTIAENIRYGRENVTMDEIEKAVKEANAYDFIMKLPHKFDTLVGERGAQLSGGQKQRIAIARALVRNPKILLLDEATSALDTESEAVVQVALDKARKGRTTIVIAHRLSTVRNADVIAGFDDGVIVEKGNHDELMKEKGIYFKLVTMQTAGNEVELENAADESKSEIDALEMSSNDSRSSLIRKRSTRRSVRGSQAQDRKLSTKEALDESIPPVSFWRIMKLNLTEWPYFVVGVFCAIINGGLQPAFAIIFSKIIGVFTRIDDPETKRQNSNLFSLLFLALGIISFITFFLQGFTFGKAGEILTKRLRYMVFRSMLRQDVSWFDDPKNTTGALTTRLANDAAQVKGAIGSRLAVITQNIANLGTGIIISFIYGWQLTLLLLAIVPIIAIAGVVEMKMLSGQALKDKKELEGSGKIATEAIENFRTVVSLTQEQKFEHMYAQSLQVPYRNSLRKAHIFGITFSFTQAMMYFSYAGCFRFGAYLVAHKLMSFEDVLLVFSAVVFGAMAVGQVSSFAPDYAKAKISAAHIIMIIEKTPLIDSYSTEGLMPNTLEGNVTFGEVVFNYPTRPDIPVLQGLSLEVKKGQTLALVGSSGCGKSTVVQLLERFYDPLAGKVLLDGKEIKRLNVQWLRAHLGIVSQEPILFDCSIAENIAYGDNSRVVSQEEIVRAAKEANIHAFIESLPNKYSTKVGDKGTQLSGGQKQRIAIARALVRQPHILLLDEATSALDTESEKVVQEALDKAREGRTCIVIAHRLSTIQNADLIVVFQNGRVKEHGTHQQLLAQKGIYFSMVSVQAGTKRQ
Data set [2] deals with T1, MDR1 (ABCB1, ATP-dependent translocase). Briefly: TP_TRANSPORTER: inhibition of Doxorubicin efflux (Doxorubicin: 50 uM, Dicapthon: 250 uM) in MDR1-expressing B16/F10 cells. The conditions noted are these: mouse, probe Doxorubicin.
Data set [3] concerns the target T2, ATP-dependent translocase ABCB1 (Homo sapiens, UniProt P08183). The data set is described as follows: TP_TRANSPORTER: inhibition of Doxorubicin efflux (Doxorubicin: 50 uM, Phenamiphos: 250 uM) in MDR1-expressing B16/F10 cells. The conditions noted are these: mouse, b16-f10, 250 µM.
Data set [4] deals with T1, MDR1 (ABCB1, ATP-dependent translocase). Briefly: TP_TRANSPORTER: inhibition of Doxorubicin efflux (Doxorubicin: 50 uM, Tetrachlorohydroquinone: 250 uM) in MDR1-expressing B16/F10 cells. As to conditions: mouse, probe Doxorubicin.
For data set [5], the target named is T2, ATP-dependent translocase ABCB1. The data set is described as follows: TP_TRANSPORTER: inhibition of Doxorubicin efflux (Doxorubicin: 50 uM, Chlorthiophos: 250 uM) in MDR1-expressing B16/F10 cells. The conditions noted are these: mouse, b16-f10, 250 µM.
Data set [6] has the same target. Briefly: TP_TRANSPORTER: inhibition of Doxorubicin efflux (Doxorubicin: 50 uM, Clotrimazole: 100 uM) in MDR1-expressing B16/F10 cells. The conditions noted are these: mouse, b16-f10, 100 µM.
Data set [7] has as its target T1, MDR1 (ABCB1, ATP-dependent translocase). Briefly: TP_TRANSPORTER: inhibition of Doxorubicin efflux (Doxorubicin: 50 uM, Hydramethylnon: 8 uM) in MDR1-expressing B16/F10 cells. The conditions noted are these: mouse, probe Doxorubicin.
Data set [8] shares this target. Briefly: TP_TRANSPORTER: inhibition of Doxorubicin efflux (Doxorubicin: 50 uM, Parathion: 250 uM) in MDR1-expressing B16/F10 cells. As to conditions: mouse, probe Doxorubicin.
The target of data set [9] is T2, ATP-dependent translocase ABCB1. Briefly: TP_TRANSPORTER: inhibition of Doxorubicin efflux (Doxorubicin: 50 uM, Chlorpyrifos: 250 uM) in MDR1-expressing B16/F10 cells. As to conditions: mouse, b16-f10, 250 µM.
Data set [10] has the same target. Briefly: TP_TRANSPORTER: efflux in MDR1-expressing B16/F10 cells. The conditions noted are these: mouse.
The target of data set [11] is T1, MDR1 (ABCB1, ATP-dependent translocase). The data set is described as follows: TP_TRANSPORTER: inhibition of Doxorubicin efflux (Doxorubicin: 50 uM, Endosulfan: 100 uM) in MDR1-expressing B16/F10 cells. The conditions noted are these: mouse, probe Doxorubicin.
The target is the same in data set [12]. The data set is described as follows: TP_TRANSPORTER: inhibition of Doxorubicin efflux (Doxorubicin: 50 uM, Chlordecone: 250 uM) in MDR1-expressing B16/F10 cells. As to conditions: mouse, probe Doxorubicin.
For data set [13] the target is unchanged. The data set is described as follows: TP_TRANSPORTER: inhibition of Doxorubicin efflux (Doxorubicin: 50 uM, Heptachlor epoxide: 250 uM) in MDR1-expressing B16/F10 cells. As to conditions: mouse, probe Doxorubicin.
Data set [14] addresses T2, ATP-dependent translocase ABCB1. Briefly: TP_TRANSPORTER: inhibition of Doxorubicin efflux (Doxorubicin: 50 uM, Fluvalinate: 250 uM) in MDR1-expressing B16/F10 cells. The conditions noted are these: mouse, b16-f10, 250 µM.
The target is the same in data set [15]. Briefly: TP_TRANSPORTER: inhibition of Doxorubicin efflux (Doxorubicin: 50 uM, […]: 250 uM) in MDR1-expressing B16/F10 cells. The conditions noted are these: mouse, b16-f10, 250 µM.

T2 sequence (P08183 whole entry): as above

The molecule `ClC1=C(Cl)C2(Cl)C3C(Cl)C=CC3C1(Cl)C2(Cl)Cl` (stereo not given) [HEPTACHLOR] showed an inhibition at 250 µM in data set [1] above 80%.
`COP(=S)(OC)Oc1ccc([N+](=O)[O-])cc1Cl` [DICAPTHON]: the inhibition at 250 µM in [2] was above 80%.
On to `CCOP(=O)(NC(C)C)Oc1ccc(SC)c(C)c1` (stereo not given) [PHENAMIPHOS], for which the Inhibition entry in [3] is “inhibitor [51-80 % inhibition]”.
As for `Oc1c(Cl)c(Cl)c(O)c(Cl)c1Cl` [TETRACHLOROHYDROQUINONE], in [4], the inhibition at 250 µM is above 80%.
For the molecule `CCOP(=S)(OCC)Oc1cc(Cl)c(SC)cc1Cl` [CHLORTHIOPHOS], the Inhibition result in data set [5] was “inhibitor [51-80 % inhibition]”.
Regarding `Clc1ccccc1C(c1ccccc1)(c1ccccc1)n1ccnc1` [CLOTRIMAZOLE], the Inhibition entry in data set [6] was “inhibitor [51-80 % inhibition]”.
Consider `CC1(C)CNC(=NN=C(/C=C/c2ccc(C(F)(F)F)cc2)/C=C/c2ccc(C(F)(F)F)cc2)NC1` [HYDRAMETHYLNON], for which the inhibition at 8 µM in data set [7] is above 80%.
In the case of `CCOP(=S)(OCC)Oc1ccc([N+](=O)[O-])cc1` [PARATHION], the inhibition at 250 µM in data set [8] is above 80%.
In the case of `CCOP(=S)(OCC)Oc1nc(Cl)c(Cl)cc1Cl` [CHLORPYRIFOS], the Inhibition result in data set [9] was “inhibitor [51-80 % inhibition]”.
Consider `O=S1OCC2C(CO1)C1(Cl)C(Cl)=C(Cl)C2(Cl)C1(Cl)Cl` (stereo not given) [ENDOSULFAN], for which the Activity entry in data set [10] is “substrate [+]”. This molecule showed an inhibition at 100 µM in [11] above 80%.
As to `O=C1C2(Cl)C3(Cl)C4(Cl)C(Cl)(Cl)C5(Cl)C3(Cl)C1(Cl)C5(Cl)C24Cl` (stereo not given) [KEPONE], in data set [12], the inhibition at 250 µM is above 80%.
For the molecule `ClC1=C(Cl)C2(Cl)C3C4OC4C(Cl)C3C1(Cl)C2(Cl)Cl` (stereo not given) [HEPTACHLOR EPOXIDE], the inhibition at 250 µM in data set [13] was above 80%.
`CC(C)[C@H](Nc1ccc(C(F)(F)F)cc1Cl)C(=O)OC(C#N)c1cccc(Oc2ccccc2)c1` (stereo not given in full) [FLUVALINATE]: in data set [14], the Inhibition entry was “inhibitor [31-50 % inhibition]”.
With `COP(=S)(Oc1cc(Cl)c(Br)cc1Cl)c1ccccc1` (stereo not given) [LEPTOPHOS], the Inhibition entry in data set [15] is “inhibitor [51-80 % inhibition]”.
